We go through six compounds from patent US7998739B2, “Methods of activating NKT cells” (The Scipps Research Institute, priority 2004, dated 2011).

The test system of one assay is human Vα24 NKT line. Nature of the assay: Cytokine secretion by human Vα24 NKT line stimulated with glycolipid-pulsed antigen presenting cells (ELISA). The format is cell-based. As to conditions: for stimulation of human Vα24 NKT cells: in the presence of antigen-presenting cells; for Th1 (IFNγ) cytokine secretion by polyclonal human NKT line / Th2 (IL4) cytokine secretion by polyclonal human NKT line: 100 ng/ml in FIG. 3C right panel. The method, then:
FIG. 3C left panel depicts IFN-γ production by a human Vα24 NKT line stimulated with a range of concentrations of iGb3 and αGalCer in the presence of irradiated PBMC as CD1d-expressing antigen presenting cells. The right panel depicts IFN-γ vs. IL-4 production by the human Vα24 NKT line in response to irradiated PBMC and 100 ng/ml of iGb3 of synthetic, purified and enzymatic origin, vs. 100 ng/ml of αGalCer, Gb3 or LacCer, as indicated.
(§1) CD1d-restricted T cell responses. Antigen presenting cells were mouse spleen cells cultured at 5×10^5 cells/well, mouse bone marrow-derived dendritic cells generated in the presence of GMC-SF and IL4, activated overnight with 10 ng/ml TNF-α and cultured at 5×10^4 cells/well, and human PBMC or GM-CSF/IL-4 cultured PBMC-derived dendritic cells cultured at 2.5×10^5 cells/well. NKT hybridomas were cultured at 5×10^4 cells/well and the human NKT line was cultured at 2.5×10^5 cells/well. Cytokines released in the culture supernatant were measured by standard ELISA for human IL-4 and IFN-γ (Pharmingen-Becton Dickinson, CA), and the indicator CTLL IL2 bioassay for mouse hybridomas. NKT hybridomas DN32.D3 (Vα14^+), TCBII (Vα14^−), TBA7 (Vα14^−) and the rat basophil leukemia RBL.CD1d transfectant line were used as described in Park, S-H et al., J. Immunol. 160 3128-34 (1998), incorporated herein by reference in its entirety. The human polyclonal Vα24Vβ11 NKT line was derived by repeated αGalCer stimulation of healthy human PBL in vitro and maintained by PHA and IL2 restimulation, and two different subclones, CD4 and DN, were used in experiments. Griffonia Simplicifolia isolectin B4 (IB4) was from Vector Laboratories, and anti-human CD1d mAb 51 was obtained from Dr. S. Porcelli. For stimulation with synthetic glycolipids, APCs were pulsed for 6 hours with various concentrations of lipids (from stock solution in DMSO), washed and incubated with NKT cell hybridoma or cell lines for 18-24 hours.
A general note: An ELISA detects its analyte on a solid surface through an enzyme-linked reagent.

The subject of assay [1] is mouse Vα14 hybridoma DN32.D3. The experiment in a line: Stimulation of mouse Vα14 NKT hybridomas by glycolipids with bone marrow-derived dendritic cells (CTLL IL2 bioassay). Type of assay: cell-based. To be noted: for presentation to DN32.D3 by Hexb−/− cells: bone marrow-derived DC from Hexb−/− mice; for stimulation of mouse Vα14 NKT cells: in the presence of antigen-presenting cells. As to the method: FIG. 4A depicts stimulation of mouse Vα14 hybridoma DN32.D3 by iGb3 and iGb4 with bone marrow-derived DC as CD1d-expressing antigen-presenting cells from Hexb^−/−, Hexb^−/− and CD1-TD mice, as indicated.
as §1

Assay [2] has as its target T1, mCD1d-GT (mouse CD1d preloaded with GT1b) (Mus musculus, UniProt P11609).
T1 construct: made in house; host or cells: fly expression system
T1 sequence (P11609 19-297 limits assumed): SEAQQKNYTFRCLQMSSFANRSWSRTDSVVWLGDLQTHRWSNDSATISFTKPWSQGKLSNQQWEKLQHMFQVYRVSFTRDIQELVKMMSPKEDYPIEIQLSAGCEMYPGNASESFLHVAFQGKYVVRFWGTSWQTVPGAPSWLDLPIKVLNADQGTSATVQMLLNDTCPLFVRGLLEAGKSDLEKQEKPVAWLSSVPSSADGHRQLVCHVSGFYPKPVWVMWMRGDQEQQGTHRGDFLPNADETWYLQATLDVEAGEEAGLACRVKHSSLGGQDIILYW
T1 sequence (P01887 21-119 partner): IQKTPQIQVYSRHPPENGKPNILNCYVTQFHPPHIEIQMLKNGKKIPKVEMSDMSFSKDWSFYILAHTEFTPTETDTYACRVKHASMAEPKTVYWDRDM
The experiment in a line: CD1d lipid loading in the presence of saposin B, visualized by isoelectrofocusing. The format is binding. To be noted: cell-free; for replacement of GT1b preloaded onto CD1d: 2 μM mCD1d-GT, 25 μM isogloboside, with or without 5 μM saposin B. An excerpt:
(§2) FIG. 4C left panel depicts in vitro loading of iGb3 and iGb4 onto recombinant CD1d in the presence of saposin B, visualized by isoelectrofocusing.
(§3) CD1d lipid loading and cell-free presentation assay. Purified complexes of CD1 d-GT were made and exchange of lipid in these complexes was quantified from isoelectric focusing gels as previously described by Cantu C III, et al., J. Immunol. 170, 4673-82 (2003), incorporated herein by reference in its entirety. Saposin-mediated loading of lipid was performed with recombinant human saposin B as described in Zhou D et al., Science 303, 523-27 (2004), incorporated herein by reference in its entirety, and with mouse saposin B. Recombinant mouse saposin B was expressed in a fly expression system and purified in the same manner used for production of mouse CD1d, described in Benlagha K, et al., J. Exp. Med 191, 1895-1903 (2000), incorporated herein by reference in its entirety. […] Stimulation of the NKT cell hybridoma DN32.D3 was measured. Briefly, mouse CD1d protein was coated for 24 h at 1 μg/well in phosphate-buffered saline (PBS) on 96-well plates. Plates were washed three times with PBS and then incubated for another 24 h with a constant lipid concentration of 6 μg/ml and various concentrations of mouse saposin B. Plates were washed three times with PBS; then 2×10^4 hybridoma cells were added. Supernatants were collected after 24 h to measure IL-2 release.

Assay [3] has as its system NKT cell hybridoma DN32.D3. Nature of the assay: Cell-free presentation to DN32.D3 by plate-bound CD1d in the presence of saposin B (IL-2 release). The format is cell-based, mouse. As to conditions: lipid 6 μg/ml.
Text: as §2
as §3, with “Supernatants were collected after 24 h to measure IL-2 release.” left out

Another assay has as its system Vα14 DN32.D3 hybridoma. Nature of the assay: Vα14 DN32.D3 hybridoma stimulation by spleen cells pulsed with αGalCer variants. The format is cell-based, mouse.
Text: FIG. 2B depicts Vα14 DN32.D3 hybridoma stimulation responses to spleen cells from Hexb^−/− (o) and Hexb^−/− littermates (●), αGalAl-(▪) and CD1-TD knock-in (▴) mice. Spleen cells were pulsed with αGalCer variants as indicated prior to hybridoma stimulation. The data are representative of 2 separate experiments.
as §1, with “hours. […]” for “hours.”

The subject of a further assay is human Vα24 NKT cells. The experiment in a line: Expansion of hVα24 NKT cells in 4-day cultures of fresh PBMC (anti-Vα24 / CD1d-αGalCer tetramer staining). Type of assay: cell-based. To be noted: 100 ng/ml. The method, then:
FIG. 3B depicts frequency of hVα24 NKT PBL, doubly-stained by anti-Vα24 and CD1d-αGalCer tetramers, in PBMC cultured for 4 days in the presence of 100 ng/ml αGalCer, iGb3, or medium alone, as indicated.
Lymphocyte preparation and flow cytometry. Lymphocyte preparations, CD1d-αGalCer tetramers, and flow cytometry staining were done according to standard protocols, e.g., those described in Zhou D et al., Science 303, 523-27 (2004), incorporated herein by reference in its entirety.
Chemically synthesized globotrihexosylceramide (Gb3, Gal α1,4 Gal β1,4 Glc β1,1 Cer) and isoglobotrihexosylceramide (iGb3, Gal α1,3 Gal β1,4 Glc β1,1 Cer) were tested for their ability to stimulate NKT cells in the presence of antigen-presenting cells.

Another assay has as its system hVα24 NKT line. The experiment in a line: Inhibition of the response of the hVα24 NKT line to PBMC-derived dendritic cells (GMCSF release, ELISA). The format is cell-based, human. To be noted: PBMC-derived dendritic cells plus exogenous ligand. As to the method:
as §1, with “Cytokines released in the culture supernatant were measured by standard ELISA for human IL-4 and IFN-γ (Pharmingen-Becton Dickinson, CA), and the indicator CTLL IL2 bioassay for mouse hybridomas.” left out

Another assay concerns non-Vα14 hybridomas. The experiment in a line: Stimulation of non-Vα14 hybridomas by glycolipid presented by bone marrow-derived dendritic cells. The format is cell-based, mouse. To be noted: not shown. The method, then:
as §1, with “For stimulation with synthetic glycolipids, APCs were pulsed for 6 hours with various concentrations of lipids (from stock solution in DMSO), washed and incubated with NKT cell hybridoma or cell lines for 18-24 hours.” left out

[4] abbreviates: presented by irradiated PBMC, listed as Synthetic iGb3.
The mark [5] stands for this setting: presented by irradiated PBMC, listed as iGb3 produced in vitro by action of iGb3 synthase.
Setting [6] is: presented by irradiated PBMC, listed as natural iGb3 purified from cat intestine.

“Also recorded” adds a separate entry of the source.

Consider `CCCCCCCCCCCCC/C=C/[C@@H](O)[C@H](COC1OC(CO)C(OC2OC(CO)C(O)C(OC3OC(CO)C(O)C(OC4OC(CO)C(O)C(O)C4NC(C)=O)C3O)C2O)C(O)C1O)NC(=O)CCCCCCCCCCCCCCCCCCCCCCCCC` (stereo partly shown) [iGb4], for which the “stimulation of human Vα24 NKT cells” value in the assay on human Vα24 NKT line is given as “stimulatory”. Besides, in assay [1], the “presentation to DN32.D3 by Hexb−/− cells” value is “failed to present” and the “stimulation of mouse Vα14 NKT cells” value was “stimulatory”. Moreover, in assay [2], the “loading onto mCD1d-GT by mouse versus human saposin B” value is “equally loaded” and the “replacement of GT1b preloaded onto CD1d” value was “partial replacement; also recorded: required saposin B”. Besides, in assay [3], the “direct stimulation of Vα14 NKT cells by CD1d/lipid complexes” value was “very weak response”.
Take Gal α1,4 Gal αCer: the “presentation to DN32.D3 by α-Galactosidase A (αGalA)−/− cells” value with Vα14 DN32.D3 hybridoma is listed as “selective defect”.
As for `CCCCCCCCCCCCCCCCCCCCCCCCCC(=O)N[C@@H](CO[C@H]1O[C@H](CO)[C@H](O)[C@H](O)[C@H]1O)[C@H](O)[C@H](O)CCCCCCCCCCCCCC` [αGalCer, α-galactosylceramide, reference compound], in the assay with human Vα24 NKT cells, the “stimulation and expansion of human NKT cells (frequency of hVα24 NKT PBL)” value was “selectively stimulated and expanded”. In the assay on hVα24 NKT line, the “GMCSF release in the supernatant, control without lectin” value is 939 pg/mL.
As for Gal α1,2 Gal αCer, in the assay on Vα14 DN32.D3 hybridoma, the “presentation to DN32.D3 by α-Galactosidase A (αGalA)−/− cells” value was “selective defect”.
On to GalNAc β1,4 Gal αCer, for which the “presentation to DN32.D3 by Hexb−/− cells” value with Vα14 DN32.D3 hybridoma is “selective defect”.
For `CCCCCCCCCCCCC/C=C/[C@@H](O)[C@H](CO[C@@H]1O[C@H](CO)[C@@H](O[C@@H]2O[C@H](CO)[C@H](O)[C@H](O[C@H]3O[C@H](CO)[C@H](O)[C@H](O)[C@H]3O)[C@H]2O)[C@H](O)[C@H]1O)NC(=O)CCCCCCCCCCCCCCCCCCCCCCCCC` [iGb3, isoglobotrihexosylceramide], in the assay on human Vα24 NKT cells, the “stimulation and expansion of human NKT cells (frequency of hVα24 NKT PBL)” value is “selectively stimulated and expanded”. In addition, in the assay with human Vα24 NKT line, the “stimulation of human Vα24 NKT cells” value is on record as “potent stimulator”. In the assay on human Vα24 NKT line (setting [4]), the “Th1 (IFNγ) cytokine secretion by polyclonal human NKT line” value (from here on “Th1 (IFNγ) cytokine secretion”) is given as “stimulated potent” and the “Th2 (IL4) cytokine secretion by polyclonal human NKT line” value (“Th2 (IL4) cytokine secretion” below) is listed as “stimulated potent”. For the same compound, in the assay on human Vα24 NKT line (setting [5]), the “Th1 (IFNγ) cytokine secretion” value is reported as “levels comparable to αGalCer” and the “Th2 (IL4) cytokine secretion” value was “levels comparable to αGalCer”. Besides, in the assay with human Vα24 NKT line (setting [6]), the “Th1 (IFNγ) cytokine secretion” value is “levels comparable to αGalCer” and the “Th2 (IL4) cytokine secretion” value was “levels comparable to αGalCer”. Also, the “cloned CD4 and DN human NKT lines showing cytokine secretion” value with human Vα24 NKT line (presented by irradiated PBMC, lines responding/tested, not shown) is recorded as 2/2. Also, in assay [1], the “presentation to DN32.D3 by Hexb−/− cells” value is on record as “presented” and the “stimulation of mouse Vα14 NKT cells” value is on record as “potent stimulator”. Also, the “other individual mVα14 hybridomas stimulated” value in assay [1] (bone marrow-derived dendritic cells, hybridomas responding/tested, not shown) is 5/5. The “stimulation of mVα14 NKT cell hybridoma DN32.D3” value in assay [1] (presented by CD1d-expressing bone marrow-derived dendritic cells) is reported as “stimulated”. The “stimulation of non-Vα14 hybridomas” value in the assay on non-Vα14 hybridomas is reported as “failed to stimulate 3/3”. In assay [2], the “loading onto mCD1d-GT by mouse versus human saposin B” value is “equally loaded” and the “replacement of GT1b preloaded onto CD1d” value is on record as “partial replacement; also recorded: required saposin B”. The “direct stimulation of Vα14 NKT cells by CD1d/lipid complexes” value in assay [3] is recorded as “directly stimulated”.
